# Literature values in US9849145B2, “Pharmaceutical composition containing honeysuckle extract and antibiotics, pharmaceutical kit, and use of honeysuckle extract for preparation of drug” (priority 2011, dated 2017).
# Tests used:
# Set-up in all cases: key: Resistant; Sensitive; Intermediate degree (moderate resistance)
# [1] = test system: Escherichia coli; details: clinical isolate, specimen 32042, urine; cited from earlier work
# [2] = test system: Klebsiella pneumoniae; details: clinical isolate, specimen 31853, urine; cited from earlier work
# [3] = test system: Pseudomona aeruginosa; details: clinical isolate, specimen 12; cited from earlier work
# [4] = test system: Klebsiella pneumoniae; details: clinical isolate, specimen 31494, sputum; cited from earlier work
# [5] = test system: Staphylococcus aureus; details: clinical isolate, specimen Y31692, secretion; cited from earlier work
Compound,resistance of Escherichia coli to the antibiotic [1],resistance of Klebsiella pneumoniae to the antibiotic [2],resistance of Pseudomona aeruginosa to the antibiotic [3],drug resistant spectrum of the experimental strain of Klebsiella pneumoniae [4],resistance of Staphylococcus aureus to the antibiotic [5]
"CO/N=C(\C(=O)N[C@@H]1C(=O)N2C(C(=O)[O-])=C(C[N+]3(C)CCCC3)CS[C@H]12)c1csc(N)n1 [FEP, cefepime]",R,S,S,S,
"CCn1cc(C(=O)O)c(=O)c2cc(F)c(N3CCNCC3)cc21 [NOR, norfloxacin]",,,S,,
trimethoprim-sulfamethoxazole [SXT],R,R,,R,S
"CN[C@H](CC(C)C)C(=O)N[C@H]1C(=O)N[C@@H](CC(N)=O)C(=O)N[C@H]2C(=O)N[C@H]3C(=O)N[C@H](C(=O)N[C@H](C(=O)O)c4cc(O)cc(O)c4-c4cc3ccc4O)[C@H](O)c3ccc(c(Cl)c3)Oc3cc2cc(c3O[C@@H]2O[C@H](CO)[C@@H](O)[C@H](O)[C@H]2O[C@H]2C[C@](C)(N)[C@H](O)[C@H](C)O2)Oc2ccc(cc2Cl)[C@H]1O [VAN, vancomycin]",,,,,S
"NC[C@H]1O[C@H](O[C@H]2[C@H](O)[C@@H](O[C@H]3O[C@H](CO)[C@@H](O)[C@H](N)[C@H]3O)[C@H](N)C[C@@H]2N)[C@H](N)C[C@@H]1O [TOB, tobramycin]",,,S,,
"O=C(N[C@H](CO)[C@H](O)c1ccc([N+](=O)[O-])cc1)C(Cl)Cl [CHL, chloramphenicol]",S,I,,R,
sulperazon [CLS],,,S,,
"CO/N=C(\C(=O)N[C@@H]1C(=O)N2C(C(=O)O)=C(CSc3nc(=O)c(=O)[nH]n3C)CS[C@H]12)c1csc(N)n1 [CRO, ceftriaxone]",R,S,R,R,
"CC[C@H]1OC(=O)[C@H](C)[C@@H](O[C@H]2C[C@@](C)(OC)[C@@H](O)[C@H](C)O2)[C@H](C)[C@@H](O[C@@H]2O[C@H](C)C[C@H](N(C)C)[C@H]2O)[C@](C)(O)C[C@@H](C)C(=O)[C@H](C)[C@@H](O)[C@]1(C)O [ERY, erythromycin]",,,,,R
amoxicillin/clavulanic acid [AMC],I,S,,I,
"CC(C)(O/N=C(\C(=O)N[C@@H]1C(=O)N2C(C(=O)[O-])=C(C[n+]3ccccc3)CS[C@H]12)c1csc(N)n1)C(=O)O [CAZ, ceftazidime]",R,S,S,S,
gentamicin,R,S,S,R,S
"C[C@H]1[C@H](NC(=O)/C(=N\OC(C)(C)C(=O)O)c2csc(N)n2)C(=O)N1S(=O)(=O)O [ATM, aztreonam]",,,S,,
ticarcillin/clavulanic acid [TIM],,,S,,
"CO[C@@]1(NC(=O)Cc2cccs2)C(=O)N2C(C(=O)O)=C(COC(N)=O)CS[C@@H]21 [FOX, cefoxitin]",R,S,,S,S
"Cc1nnc(SCC2=C(C(=O)O)N3C(=O)[C@@H](NC(=O)Cn4cnnn4)[C@H]3SC2)s1 [CZO, cefazolin]",R,S,,R,
"C[C@H]1COc2c(N3CCN(C)CC3)c(F)cc3c(=O)c(C(=O)O)cn1c23 [LEV, left-handed oxygen fluorine]",,,S,,
"CCN1CCN(C(=O)N[C@@H](C(=O)N[C@@H]2C(=O)N3[C@@H]2SC(C)(C)[C@@H]3C(=O)O)c2ccccc2)C(=O)C1=O [PIP, piperacillin]",R,I,S,R,
"CO[C@H]1/C=C/O[C@@]2(C)Oc3c(C)c(O)c4c(O)c(c(/C=N/N5CCN(C)CC5)c(O)c4c3C2=O)NC(=O)/C(C)=C\C=C\[C@H](C)[C@H](O)[C@@H](C)[C@@H](O)[C@@H](C)[C@H](OC(C)=O)[C@@H]1C [RIF, rifampin]",,,,,S
"Cc1onc(-c2ccccc2)c1C(=O)N[C@@H]1C(=O)N2[C@@H]1SC(C)(C)[C@@H]2C(=O)O [OXA, oxacillin]",,,,,S
"CO/N=C(\C(=O)N[C@@H]1C(=O)N2C(C(=O)O)=C(COC(N)=O)CS[C@H]12)c1ccco1 [CXM, cefuroxime]",R,S,R,R,
"NCC[C@H](O)C(=O)N[C@@H]1C[C@H](N)[C@@H](O[C@H]2O[C@H](CN)[C@@H](O)[C@H](O)[C@H]2O)[C@H](O)[C@H]1O[C@H]1O[C@H](CO)[C@@H](O)[C@H](N)[C@H]1O [AMK, amikacin]",S,S,S,S,S
"CO/N=C(\C(=O)N[C@@H]1C(=O)N2C(C(=O)O)=C(COC(C)=O)CS[C@H]12)c1csc(N)n1 [CTX, cefotaxime]",R,S,S,R,
piperacillin/tazobactam [TZP],I,S,S,I,
penicillin [PNE],,,,,R
ampicillin/sulbactam [SAM],,,R,,S
"CCN1CCN(C(=O)N[C@@H](C(=O)N[C@@H]2C(=O)N3C(C(=O)O)=C(CSc4nnnn4C)CS[C@H]23)c2ccc(O)cc2)C(=O)C1=O [CFP, cefoperazone]",,,S,,
